19 compounds from patent publication US20260158009A1 (GENZYME CORPORATION, priority 2023, published 2026) can be followed below.

Assay [1] concerns the target T1, hRIPK1 (aa 1-375) fusion protein (Homo sapiens, UniProt Q13546).
T1 construct: hRIPK1 (aa 1-375) fusion protein
T1 sequence (Q13546 1-375): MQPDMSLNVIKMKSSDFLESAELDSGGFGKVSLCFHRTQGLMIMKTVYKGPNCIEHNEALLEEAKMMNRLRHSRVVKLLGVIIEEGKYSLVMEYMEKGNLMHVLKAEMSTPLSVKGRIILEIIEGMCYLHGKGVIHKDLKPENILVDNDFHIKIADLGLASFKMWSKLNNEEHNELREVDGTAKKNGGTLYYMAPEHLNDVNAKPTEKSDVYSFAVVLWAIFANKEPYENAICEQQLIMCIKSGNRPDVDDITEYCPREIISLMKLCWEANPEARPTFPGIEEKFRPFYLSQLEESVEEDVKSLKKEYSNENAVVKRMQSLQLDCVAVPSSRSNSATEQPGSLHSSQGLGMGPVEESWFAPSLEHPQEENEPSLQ
As to the kind of experiment: ADP-Glo kinase assay: catalytic activity of RIPK1 (autophosphorylation, conversion of ATP to ADP). Format: biochemical. As for the experimental part:
The catalytic activity of RIPK1 was measured by monitoring the conversion of Adenosine triphosphate (ATP) to Adenosine diphosphate (ADP) due to autophosphorylation using an ADP-Glo kinase kit (Promega, catalog no. V9104).
In detail, 2 μl recombinantly produced hRIPK1 (aa 1-375) fusion protein (end concentration 3.6 μg/ml) and 2 μl compound (end concentration 33300-1.69 nM; DMSO end concentration 1%) were incubated for 30 minutes at room temperature and then 2 μl ATP (ADP Glo kit, end concentration 50 μM) were added. After another 240 minutes incubation at room temperature, 5 μl Promega ADP-Glo reagent I was added to quench the reaction and deplete unconsumed ATP. After an incubation period of 30 minutes, 10 μl Promega ADP-Glo detection reagent II was added resulting in conversion of ADP to ATP, which generates a light-reaction between luciferase and luciferin. Luminescence was quantified after 30 minutes with a Pherastar FS (BMG LABTECH, Ortenberg).
The adjustment was obtained by nonlinear regression using the Levenberg Marquardt algorithm.
A general note: ADP-Glo first removes unused ATP, then detects ADP through luciferase.

The subject of assay [2] is U937 cells. The assay can be described thus: Cellular assay in U937 cells: activity of RIPK1 inhibitors on TNFα/zVAD.fmk-induced cell death (necroptosis), CellTiter 96 AQueous (MTS) readout. Format: cell-based. The note with it: Homo sapiens, U-937. The text has this:
Upon TNF-Receptor I ligation, Ser/Thr kinase RIPK1 is recruited to a transient receptor complex 1. Upon modification of RIPK1 which promotes activation of RIPK1, complex IIb can form, that involves recruitment of RIPK3 and MLKL (mixed lineage-kinase domain-like protein) which then translocates from the cytosol to the plasma membrane to execute cell death (Cai, Z. et al, Nat. Cell Biol. (2014) 16:55-65).
Cell death was quantified in 96 well plates by determination of the amount of live cell using a CellTiter 96 AQueous reagent (Promega), a calorimetric method to measure the number of live cells by reducing tetrazolium compound [3-(4,5-dimethylthiazol-2-yl)-5-(3-carboxymethoxyphenyl)-2-(4-sulfophenyl)-2H-tetrazolium, inner salt; MTS] into formazan. Absorbance of formazan was read at 490 nm. The inhibitory activity of the test compound was quantified in a concentration response curve (CRC) experiment.
Compounds were obtained as 10 mM stock solutions and were diluted 1 to 10 volumes with DMSO to yield a 1 mM solution. From this solution 2 μl were diluted with 998 μl growth medium. 100 μl of 2 μM compound solution was further diluted sequentially with a dilution factor of 2.5 by adding 150 μl growth medium. A total of 10 concentrations were tested ranging from 10 μM to 0.26 nM or from 1 μM to 0.07 nM.
U937 cells were cultured in RPMI1640 Glutamax and 10% heat inactivated FBS. 50 μl cell suspension containing 1×10^6 cells/ml supplemented with 50 μM zVAD.fmk (Benzyloxycarbonyl-Val-Ala-Asp (OMe) fluoromethylketone) and 100 ng/ml recombinant human TNF[…] were dispensed in each well of a 96-well plate. 50 μl of compound dilutions (described in Cellular assay in U937 cells) were added and the cell suspension incubated overnight (18 to 24 hrs) at 37° C., 5% CO2 in a humidified atmosphere (95% rH). High (no compound) and low control (no TNF[…], zVAD.fmk) were tested with 7 replicates; all compound concentrations were tested in duplicates on each experimental plate.
CellTiter 96 Aqueous reagent was mixed (100 μl PMS (phenazine methosulfate) solution/2 ml MTS (3-(4,5-[…])-5-(3-carboxymethoxyphenyl)-2-(4-sulfophenyl)-2H-tetrazolium, inner salt) solution) and 20 μl were added per well. After 4 hrs incubation at 37° C. (5% CO2 95% rH) optical density was measured at 490 nm on a microplate reader (Tecan Infinite M1000).
The % inhibition is expressed as percentage of the maximal inhibition value obtained in the absence of TNFα/zVAD.fmc.

Turning to `O=C([C@H]1CC[C@H](Cn2cnc3cc(F)ccc32)CC1)N1OCC[C@H]1c1cnccn1` [compound 92, trans-(4-((5-fluoro-1H-benzo[d]imidazol-1-yl)methyl)cyclohexyl)((S)-3-(pyrazin-2-yl)isoxazolidin-2-yl)methanone], the results for the IC50 in assay [1] and in assay [2] were 75 nM and 132 nM, respectively. Regarding `CC1(Oc2cnc3ccn(C[C@H]4CC[C@H](C(=O)N5OCC[C@H]5c5cc(F)cc(C#N)c5)CC4)c3c2)CC1` [compound 184, trans-3-fluoro-5-[(3S)-2-[4-[[6-(1-methylcyclopropoxy)pyrrolo[3,2-b]pyridin-1-yl]methyl]cyclohexanecarbonyl]isoxazolidin-3-yl]benzonitrile], the IC50 (in general, the point on the concentration scale where inhibition reaches its midpoint) was determined as 26 nM in assay [1] and 19 nM in assay [2]. The matching figures for `Cc1cncc([C@@H]2CCON2C(=O)[C@H]2CC[C@H](Cc3cc(C)c4nc(C)nn4c3)CC2)n1` [compound 411, trans-[4-[(2,8-dimethyl-[1,2,4]triazolo[1,5-a]pyridin-6-yl)methyl]cyclohexyl]-[(3S)-3-(6-methylpyrazin-2-yl)isoxazolidin-2-yl]methanone]: 48 nM and 36 nM. The like results for `CNC(=O)c1cc(F)cc(C[C@H]2CC[C@H](C(=O)N3OCC[C@H]3c3ccc(F)cc3)CC2)c1` [compound 165, trans-3-fluoro-5-[[4-[(3S)-3-(4-fluorophenyl)isoxazolidine-2-carbonyl]cyclohexyl]methyl]-N-methyl-benzamide] were, in that order, 5 nM and 7 nM.

`N#Cc1cc(F)cc([C@@H]2CCON2C(=O)[C@H]2CC[C@H](Cn3ccc4ncc(OCC5CC5)cc43)CC2)c1` [compound 152, trans-3-[(3S)-2-[4-[[6-(cyclopropylmethoxy)pyrrolo[3,2-b]pyridin-1-yl]methyl]cyclohexanecarbonyl]isoxazolidin-3-yl]-5-fluoro-benzonitrile]: the IC50 in assay [1] stood at 7 nM; in assay [2], 3 nM. The matching figures for `Cc1nn(C[C@H]2CC[C@H](C(=O)N3OCC[C@H]3c3cc(F)cc(F)c3)CC2)c2ccccc12` [compound 60, trans-((S)-3-(3,5-difluorophenyl)isoxazolidin-2-yl)(4-((3-methyl-1H-indazol-1-yl)methyl)cyclohexyl)methanone]: 14 nM and 5 nM. For `Cc1ccc(CC23CCC(C(=O)N4OCC[C@H]4c4cc(F)cc(C#N)c4)(CC2)C3)cc1C(N)=O` [compound 270, 5-[[4-[(3S)-3-(3-cyano-5-fluoro-phenyl)isoxazolidine-2-carbonyl]norbornan-1-yl]methyl]-2-methyl-benzamide], the half-inhibitory concentration (IC50) was 20 nM in assay [1] and 50 nM in assay [2]. The matching figures for `N#Cc1cnc2ccn(C[C@H]3CC[C@H](C(=O)N4OCC[C@H]4c4ccccn4)CC3)c2c1` [compound 188, trans-1-[[4-[(3S)-3-(2-pyridyl)isoxazolidine-2-carbonyl]cyclohexyl]methyl]pyrrolo[3,2-b]pyridine-6-carbonitrile]: 37 nM and 124 nM. The matching figures for `N#Cc1ccc2c(cnn2C[C@H]2CC[C@H](C(=O)N3OCC[C@H]3c3cc(F)cc(F)c3)CC2)c1` [compound 52, trans-1-((4-((S)-3-(3,5-difluorophenyl)isoxazolidine-2-carbonyl)cyclohexyl)methyl)-1H-indazole-5-carbonitrile]: 15 nM and 2 nM.

In the case of `N#Cc1cc(F)cc([C@@H]2CCON2C(=O)[C@H]2CC[C@H](Cn3cc4ncc(C#N)cc4n3)CC2)c1` [compound 24, trans-2-((4-((S)-3-(3-cyano-5-fluorophenyl)isoxazolidine-2-carbonyl)cyclohexyl)methyl)-2H-pyrazolo[4,3-b]pyridine-6-carbonitrile], the IC50 worked out at 109 nM in assay [1] and 471 nM in assay [2]. The like results for `Cc1ncn(C[C@H]2CC[C@H](C(=O)N3OCC[C@H]3c3cncc(F)c3)CC2)c1C#N` [compound 4, trans-1-((4-((S)-3-(5-fluoropyridin-3-yl)isoxazolidine-2-carbonyl)cyclohexyl)methyl)-4-methyl-1H-imidazole-5-carbonitrile] were, in that order, 116 nM and 721 nM. As to `Cc1cc(C[C@H]2CC[C@H](C(=O)N3OCC[C@H]3c3cc(F)cc(C#N)c3)CC2)nc(C)n1` [compound 312, 3-[(3S)-2-[4-[(2,6-dimethylpyrimidin-4-yl)methyl]cyclohexanecarbonyl]isoxazolidin-3-yl]-5-fluoro-benzonitrile], the half-maximal inhibitory concentration (IC50) in assay [1] is 38 nM; in assay [2] it was 20 nM. The like results for `O=C([C@H]1CC[C@H](Cc2ccc(C3(O)COC3)cc2)CC1)N1OCC[C@H]1c1cnccn1` [compound 352, trans-[4-[[4-(3-hydroxyoxetan-3-yl)phenyl]methyl]cyclohexyl]-[(3S)-3-pyrazin-2-yl-1,2-oxazolidin-2-yl]methanone] were, in that order, 30 nM and 58 nM. With `O=C1NCc2c(F)cc(C[C@H]3CC[C@H](C(=O)N4OCC[C@H]4c4ccc(F)cc4)CC3)cc21` [compound 212, trans-4-fluoro-6-[[4-[(3S)-3-(4-fluorophenyl)isoxazolidine-2-carbonyl]cyclohexyl]methyl]isoindolin-1-one], the IC50 in assay [1] stood at 23 nM; in assay [2], 10 nM. The like results for `Cc1nc(C[C@H]2CC[C@H](C(=O)N3OCC[C@H]3c3cnccn3)CC2)cs1` [compound 240, trans-[4-[(2-methylthiazol-4-yl)methyl]cyclohexyl]-[(3S)-3-pyrazin-2-ylisoxazolidin-2-yl]methanone] were, in that order, 27 nM and 52 nM.

In assay [1], `COc1cc(C[C@H]2CC[C@H](C(=O)N3OCC[C@H]3c3csc(C)n3)CC2)cn2nc(C)nc12` [compound 367, trans-[4-(8-Methoxy-2-methyl-[1,2,4]triazolo[1,5-a]pyridin-6-ylmethyl)-cyclohexyl]-[(S)-3-(2-methyl-thiazol-4-yl)-isoxazolidin-2-yl]-methanone] showed an IC50 of 94 nM. In turn, `N#Cc1cc(F)cc([C@@H]2CCON2C(=O)[C@H]2CC[C@H](Cc3ccc(F)c(C#N)c3)CC2)c1` [compound 244, trans-5-[[4-[(3S)-3-(3-cyano-5-fluoro-phenyl)isoxazolidine-2-carbonyl]cyclohexyl]methyl]-2-fluoro-benzonitrile] gave an IC50 in assay [1] of 20 nM. The compound `COc1cc(CC2CCC(C(=O)N3OCC[C@H]3c3cnccn3)CC2)cn2nc(C)nc12` (stereo partly drawn) [compound 314, [4-[(8-methoxy-2-methyl-[1,2,4]triazolo[1,5-a]pyridin-6-yl)methyl]cyclohexyl]-[(3S)-3-pyrazin-2-yl-1,2-oxazolidin-2-yl]methanone] registered an IC50 in assay [1] of 35 nM. Compared with the last compound, the IC50 is about 1.8-fold higher. In assay [1], `Cc1cnc([C@@H]2CCON2C(=O)[C@H]2CC[C@H](Cc3cnc4c(C)nn(C)c4c3)CC2)cn1` [compound 410, [4-[(1,3-dimethylpyrazolo[4,3-b]pyridin-6-yl)methyl]cyclohexyl]-[(3S)-3-(5-methylpyrazin-2-yl)-1,2-oxazolidin-2-yl]methanone] returned a half-inhibitory concentration (IC50) of 80 nM.
